Series [1] can be described thus: Volatility of compounds measured by thermogravimetric analysis (TGA), rate of weight loss. In kind it is physicochemical. As to conditions: estimates of volatility. From the text:
Briefly, the rate of weight loss measured in units of […]g/min can be used to determine vapor pressure as shown by the simplified equation: wherein, k is the intrinsic volatility and A is the surface area, Referring now to FIG. 2. A graph of weight loss as function of time for solid samples produces a linear curve; the slope of the curve is the rate of weight loss. When this method is used to measure the volatility of aqueous salt concentrates or liquid concentrates, the water or acetone present in the sample volatilizes before the sample of interest. The first linear loss region of the curve is the loss of water or acetone and the second linear region is characteristic of the sample of interest. In order to illustrate the difference in volatility between some of the compounds disclosed herein and the widely used herbicide dicamba, data from both the compounds and dicamba are presented Table 3 and in FIG. 1.

The test system of series [2] is Amaranthus rudis (AMATA). Put plainly: Postemergence herbicide evaluation, percent reduction in plant size vs untreated control, 21 days after treatment. In kind it is in vivo, Amaranthus rudis (tall water hemp). As to conditions: Amaranthus tuberculatus, post-emergence, 504 h, AMATA, postemergence, read-out: Control/Injury; for pest or weed control at 140 g/ha: rate 140 g ae/ha; for pest or weed control at 280 g/ha: rate 280 g ae/ha. The essentials:
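Greenhouse-grown tall waterhemp (25-28° C, 16 h light) at the 2-8 leaf stage, treated by track sprayer at 187 L/ha with compound at 140 or 280 g ae/ha in acetone/DMSO-based spray solution with crop oil and surfactant. 3-4 replicates per treatment, randomized complete block; plant size reduction versus untreated control measured 21 days after treatment.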

Series [3] has as its system Ambrosia artemisiifolia (AMBEL). The description is as above. Format: in vivo, Ambrosia artemisiifolia (common ragweed). The following applies: post-emergence, 504 h, AMBEL, postemergence, read-out: Control/Injury; for pest or weed control at 140 g/ha: rate 140 g ae/ha; for pest or weed control at 280 g/ha: rate 280 g ae/ha. The procedure, abridged:
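Greenhouse-grown plants (25–28 °C, 16 h light) were sprayed postemergence at the 2–8 leaf stage with 140 or 280 g ae/ha in acetone/DMSO-based spray solution with crop oil and surfactant, at 187 L/ha by track sprayer. There were 3–4 replicates. Plant size was measured 21 days after treatment versus untreated plants.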

In series [4] the test system is Kochia scoparia (KCHSC). The series is described as above. The following applies: Bassia scoparia, post-emergence, 504 h, KCHSC, postemergence, 21 days after treatment, read-out: Control/Injury; for pest or weed control at 140 g/ha: rate 140 g ae/ha; for pest or weed control at 280 g/ha: rate 280 g ae/ha. In kind it is in vivo. The essentials: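 Greenhouse-grown plants (25-28 °C, 16 h light) at the 2 to 8 leaf stage were track-sprayed postemergence at 140 or 280 g ae/ha in acetone/DMSO-based spray solution with crop oil and surfactant, at 187 L/ha, in 3-4 randomized replicates.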

For series [5], the system named is Amaranthus palmeri (AMAPA). Described as above. Format: in vivo, Amaranthus palmeri (Palmer amaranth). The following applies: post-emergence, 504 h, postemergence, read-out: Control/Injury; for pest or weed control at 140 g/ha: rate 140 g ae/ha; for pest or weed control at 280 g/ha: rate 280 g ae/ha. The essentials: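 Greenhouse-grown Palmer amaranth (25 to 28° C, 16 h light) sprayed postemergence at the 2 to 8 leaf stage with 140 or 280 g ae/ha in acetone/DMSO-based solution containing crop oil concentrate, 187 L/ha by track sprayer. Three to four replicates; plant size measured 21 days after treatment as percent reduction versus untreated control.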

The test system of series [6] is Conyza canadensis (L.) (ERICA). Described as above. As to conditions: Erigeron canadensis, post-emergence, 504 h, ERICA, postemergence, read-out: Control/Injury; for pest or weed control at 140 g/ha: rate 140 g ae/ha; for pest or weed control at 280 g/ha: rate 280 g ae/ha. Format: in vivo, Conyza canadensis (L.) (Horseweed). The procedure, abridged:
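Horseshoe-weed (horseweed) seedlings at 2 to 8 leaf stage in greenhouse (25-28° C, 16 h light), sprayed postemergence at 140 or 280 g ae/ha in acetone/DMSO-based spray solution, 187 L/ha track-sprayer. Randomized complete block, 3-4 replicates; plant size measured 21 days after treatment as percent reduction vs untreated controls.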

Series [7] deals with Glycine max. Put plainly: whole plant or invertebrate. As to conditions: Glycine max, post-emergence, 504 h, read-out: Control/Injury. The essentials: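 Greenhouse soybean (25–28 °C, 16 h light) sprayed post-emergence at 2–8 leaf stage with 140 or 280 g ae/ha in acetone/DMSO-based spray solution with crop oil concentrate, 187 L/ha by track sprayer; 3–4 replicates, randomized blocks. Plant size reduction versus untreated control measured 21 days after treatment.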

[8] abbreviates: percent reduction vs untreated control.
[9] abbreviates: R-AMAPA, percent reduction vs untreated control, 21 days after treatment.
The mark [10] stands for this setting: percent reduction vs untreated control, 21 days after treatment.
The mark [11] stands for this setting: percent reduction vs untreated, 21 days after treatment.

Each structure is given as a SMILES string. Where two headings read alike, the source gives them in different places.

As for `COc1c(Cl)ccc(Cl)c1C(=O)O/N=C(\SC)c1ccccc1` [Compound A-85], the Volatility in series [1] is on record as 0.28 ng/min. Also, the pest or weed control at 140 g/ha worked out at 57% in series [2]; 67% in series [3]; 95% in series [4] (setting [8]); 68% in series [5] (setting [9]); 37% in series [6] (setting [10]). Moreover, the pest or weed control at 280 g/ha in series [2] was found to be 73%; in series [3], 78%; in series [4] (setting [8]), 97%; in series [5] (setting [9]), 72%; in series [6] (setting [10]), 68%. For the same molecule, the plant injury at 140 g/ha in series [7] came out at 5%. Moreover, the plant injury at 280 g/ha in series [7] stood at 7%.
As for `COc1c(Cl)ccc(Cl)c1C(=O)O/N=C/c1ccco1` [Compound A-88], the Volatility in series [1] is recorded as 0.35 ng/min. Besides, the pest or weed control at 140 g/ha in series [2] was 72%; in series [3] it was 70%; in series [4] (setting [8]), 87%; in series [5] (setting [9]), 67%; in series [6] (setting [10]) it was 75%. Moreover, the pest or weed control at 280 g/ha in series [2] is 80%; in series [3], 82%; in series [4] (setting [8]) it was 94%; in series [5] (setting [9]), 68%; in series [6] (setting [10]), 94%. In series [7], the plant injury at 140 g/ha came to 10%. In addition, the plant injury at 280 g/ha in series [7] was determined as 3%.
In the case of `COc1c(Cl)ccc(Cl)c1C(=O)N(C)OC` [Compound A-129], in series [1], the Volatility is given as 13.4 ng/min. For the same molecule, the pest or weed control at 140 g/ha in series [2] stood at 20%; in series [3] it was 10%; in series [4] (percent reduction vs untreated), 0%; in series [5] (AMAPA), 8%; in series [6], 38%. Further, the pest or weed control at 280 g/ha in series [2] was 23%; in series [3], 15%; in series [4] (percent reduction vs untreated), 5%; in series [5] (AMAPA), 20%; in series [6], 0%.
`COc1c(Cl)ccc(Cl)c1C(=O)Nc1ccnn1C` [Compound A-134]: the Volatility in series [1] is given as 0.01 ng/min. Moreover, the pest or weed control at 140 g/ha was 15% in series [2]; 33% in series [3]; 0% in series [4] (percent reduction vs untreated); 15% in series [5] (AMAPA); 5% in series [6]. Moreover, the pest or weed control at 280 g/ha in series [2] worked out at 8%; in series [3], 30%; in series [4] (percent reduction vs untreated), 0%; in series [5] (AMAPA) it was 15%; in series [6] (setting [11]), 10%.
On to `COc1c(Cl)ccc(Cl)c1C(=O)O/N=C(/C)N` [Compound A-136], for which the Volatility in series [1] is recorded as 0.086 ng/min. Also, the pest or weed control at 140 g/ha in series [2] amounted to 68%; in series [3], 87%; in series [4] (percent reduction vs untreated), 76%; in series [5] (AMAPA), 85%; in series [6] (setting [11]) it was 94%. For the same molecule, the pest or weed control at 280 g/ha in series [2] stood at 74%; in series [3] it was 96%; in series [4] (percent reduction vs untreated), 94%; in series [5] (AMAPA), 90%; in series [6] (setting [11]) it was 99%.
Turning to `CCCC[C@H](CC)COC(=O)c1c(Cl)ccc(Cl)c1OC` [Compound A-137], the Volatility in series [1] is reported as 3.42 ng/min. Besides, the pest or weed control at 140 g/ha in series [2] was 1%; in series [3], 33%; in series [4] (percent reduction vs untreated) it was 6%; in series [5] (AMAPA), 15%; in series [6] (setting [11]), 0%. Besides, the pest or weed control at 280 g/ha in series [2] stood at 8%; in series [3], 36%; in series [4] (percent reduction vs untreated), 3%; in series [5] (AMAPA), 15%; in series [6] (setting [11]), 0%.
As for `COc1c(Cl)ccc(Cl)c1C(=O)O/N=C(\N)c1ccc2ccccc2c1` [Compound A-138], the Volatility in series [1] is on record as 0.008 ng/min. Moreover, the pest or weed control at 140 g/ha in series [2] was 65%; in series [3], 79%; in series [4] (percent reduction vs untreated), 91%; in series [5] (AMAPA), 73%; in series [6] (setting [11]), 75%. In addition, the pest or weed control at 280 g/ha in series [2] was 64%; in series [3], 76%; in series [4] (percent reduction vs untreated), 91%; in series [5] (AMAPA) it was 59%; in series [6] (setting [11]), 70%.

The values above are taken from patent US20240122179A1, “AUXINIC HERBICIDES AND METHODS OF USE THEREOF” (CORTEVA AGRISCIENCE LLC, priority 2021, published 2024).
